Assay results taken from US10159685B2, “Vascular calcification” (Cambridge Enterprise Limited, priority 2016, dated 2018).
Like-named read-outs stand apart in the source and are kept apart here. Marks after values point to notes of the source that are not given here.

What was measured:
Assay type in all cases: cell-based
[1] = test system: bovine vascular smooth muscle cells (bVSMCs); conditions: 7 days; for Cell viability of bVSMCs after seven days (MTT signal, relative to control): mean of three experiments; for Toxicity to bVSMCs (MTT assay, in words): at the concentrations tested (0.5 to 100 μM)
Experimental: The toxicity of the identified compounds to bovine VSMCs was measured using the MTT assay, which measures the activity of dehydrogenase enzymes of live cells. This assay can pick up both cell death and proliferation.
Bovine VSMCs were seeded in 96 well plates and cultured in M199/20% FCS for 1 day. Then, the cells were incubated with inhibitor concentrations from 0.5 to 100 μM (in M199 medium+5% FBS). The cells were incubated with the inhibitors for 7 days; every 2-3 days the medium −/+inhibitors was exchanged. Then, the MTT assay was performed. The stock vehicle DMSO was tested at corresponding concentrations to the inhibitors at 0.1% DMSO or less.

[2] = test system: human monocyte-macrophages (HMMs); assay: MTT toxicity assay, HMMs, seven days (Example 3); conditions: 7 days; for Cell viability by MTT, percent of control: mean of three experiments; for Toxicity to HMMs (in words): at a concentration of 100 μM
Experimental: A similar set of toxicity experiments was performed with human monocyte-macrophages (HMMs).

[3] = test system: bovine vascular smooth muscle cells (bVSMCs); assay: o-Cresolphthalein Ca2+ assay, bVSMC GAD calcification model (Examples 4 and 5); conditions: GAD-treated bVSMCs, 10 μM, 7 d
Experimental: For the bVSMCs a GAD medium (10 mM β-glycerophosphate/0.1 mM L-ascorbic acid-2-phosphate/10 nM dexamethasone) model was used to induce mineralization in bVSMCs. Accordingly, cells were seeded in tissue culture plates using M199/20% FCS culture medium and cultured overnight. The next day, cells were treated either with medium only (M199/5% FBS)+/−inhibitors, or with the GAD-medium (10 mM β-glycerophosphate/0.1 mM L-ascorbic acid-2-phosphate/[…] dexamethasone)+/−inhibitors.
Medium+/−inhibitors was exchanged every 2-3 days. […]
The o-Cresolphthalein assay is a spectrophotometric method for measuring Ca^2+-concentrations in cell/tissue lysates. Following the calcification experiments, cells are briefly washed to remove medium and 100 […]1 of 0.1 N HCl is added to each well to dissolve any mineral deposits. Then, the Ca^2+-concentration of the samples is measured spectrophotometrically (at 570 nm) in the o-cresolphthalein assay with the help of a CaCl2 standard curve in a concentration range of ˜0.02-270 µg Ca^2+/ml.
The commercial BioRad DC protein assay is based on the Lowry method, aka reaction of proteins with a copper-tartrate complex and subsequent reaction with Folin's reagent. Following the calcification experiment, cells are briefly washed to remove medium and 100 µl of solubilisation solution (0.1 M NaOH/1% SDS/DIW) is added to each well to lyse the cells. The protein concentrations of the lysates are subsequently determined in the BioRad DC assay as per supplier's instructions using BSA (bovine serum albumin) as standard.
The in vitro model is the same as the model used in example 4; bovine vascular smooth muscle cells (bVSMCs) cultured so that they produce extracellular matrix, with the addition of the GAD medium (10 mM β-glycerophosphate/0.1 mM L-ascorbic acid-2-phosphate/10 nM dexamethasone).
As above, cells were treated either with medium only (“no-additions”; NA)+/−inhibitors, or with the GAD-medium+/−inhibitors. The inhibitors used were PJ34 and minocyclin (MC) at 10 μM, 1 μM and 0.1 μM.
The methodology was the same as that described in example 4.

[4] = test system: human vascular smooth muscle cells (hVSMCs); assay: o-Cresolphthalein Ca2+ assay, hVSMC Ca/P calcification model (Examples 7-9); conditions: hVSMCs, 8 days, concentrations between 0.05 μM and 3 μM
Experimental: (§1) Primary hVSMCs were cultured in M199 media containing FBS (M199/5% FBS). They were plated at a known cell density, allowed to grow for 24 hours and then treated with control (DMSO only) or calcification media (DMSO containing 2.7 mM Calcium+2.5 mM phosphate)+/−inhibitors. After 6 days, calcification was assessed using the o-Cresolphthalein assay for quantification of Ca^2+ deposition and a BioRad protein assay for protein content.
Medium+/−inhibitors was exchanged every 2-3 days.
as §1, with “8” for “6”, “using” for “using the”
All of the compounds tested were used at a concentration of 3 μM. Medium+/−inhibitors was exchanged every 2-3 days.
as §1, with “phosphate)+/−compounds.” for “phosphate)+/−inhibitors.”, “8” for “6”, “using” for “using the”
These concentrations were chosen to mimic the systemic concentrations of these drugs following patient dosing according to the dose schedule in the prescribing information for each drug. Medium+/−inhibitors was exchanged every 2-3 days.

| Structure (SMILES) | Cell viability of bVSMCs after seven days (MTT signal, relative to control) ([1]; 0.5 uM) | Cell viability of bVSMCs after seven days (MTT signal, relative to control) ([1]; 1 uM) | Cell viability of bVSMCs after seven days (MTT signal, relative to control) ([1]; 2 uM) | Cell viability of bVSMCs after seven days (MTT signal, relative to control) ([1]; 5 uM) | Cell viability of bVSMCs after seven days (MTT signal, relative to control) ([1]; 10 uM) | Cell viability of bVSMCs after seven days (MTT signal, relative to control) ([1]; 20 uM) | Cell viability of bVSMCs after seven days (MTT signal, relative to control) ([1]; 50 uM) | Cell viability of bVSMCs after seven days (MTT signal, relative to control) ([1]; 100 uM) | Toxicity to bVSMCs (MTT assay, in words) [1] | Cell viability by MTT, percent of control ([2]; 0.5 uM) | Cell viability by MTT, percent of control ([2]; 1 uM) | Cell viability by MTT, percent of control ([2]; 2 uM) | Cell viability by MTT, percent of control ([2]; 5 uM) | Cell viability by MTT, percent of control ([2]; 10 uM) | Cell viability by MTT, percent of control ([2]; 20 uM) | Cell viability by MTT, percent of control ([2]; 50 uM) | Cell viability by MTT, percent of control ([2]; 100 uM) | Toxicity to HMMs (in words) [2] | Calcium levels (mass of calcium, FIG. 7B) compared to no inhibitors [3] | Normalised calcium levels (mass of calcium per mass of protein, FIG. 9B) [3] | other results |
| --- | --- | --- | --- | --- | --- | --- | --- | --- | --- | --- | --- | --- | --- | --- | --- | --- | --- | --- | --- | --- | --- |
| O=C1NCCc2c(OCCCCN3CCCCC3)cccc21 [DPQ, 3,4-dihydro-5-[4-(1-piperidinyl)butoxyl]-1(2H)-isoquinolinone] | 100.30 | 101.78 | 92.11* | 94.96 | 92.58* | 94.24* | 89.46* | 89.87* | virtually non-toxic | 106.61 | 88.68 | 89.59 | 95.11 | 91.82 | 91.99 | 86.74 | 90.94 | relatively innocuous | – | – | – |
| COc1ccc([C@@H]2Sc3ccccc3N(CCN(C)C)C(=O)[C@@H]2OC(C)=O)cc1 [Diltiazem, diltiazem] | 98.78 | 96.07 | 89.48* | 91.88* | 94.54 | 113.60* | 143.28* | 119.64* | non-toxic | 97.10 | 104.94 | 99.61 | 91.09 | 92.45 | 100.42 | 92.16 | 53.65* | most toxic | lower calcium levels | slightly lower calcium levels | Stimulatory effect on bVSMCs (MTT assay) ([1]; at 20 μM and above): stimulatory effect |
| CC(=O)CCCCn1c(=O)c2c(ncn2C)n(C)c1=O [Pentoxifylline, pentoxifylline] | 97.68 | 95.91 | 92.19* | 91.33* | 91.77* | 92.43* | 93.01* | 96.96 | virtually non-toxic | 98.73 | 90.57 | 91.92 | 107.27 | 88.35 | 93.54 | 89.28 | 89.64 | relatively innocuous | no effect | slightly lower calcium levels | Inhibition of calcification, normalised results (FIG. 27) [4]: do not inhibit calcification |
| CC(C)c1c(C(=O)Nc2ccccc2)c(-c2ccccc2)c(-c2ccc(F)cc2)n1CC[C@@H](O)C[C@@H](O)CC(=O)O [atorvastatin] | – | – | – | – | – | – | – | – | – | – | – | – | – | – | – | – | – | – | – | – | Inhibition of calcification, normalised results (FIG. 27) [4]: do not inhibit medial vascular calcification |
| COc1ccccc1Oc1c(NS(=O)(=O)c2ccc(C(C)(C)C)cc2)nc(-c2ncccn2)nc1OCCO [bosentan MH, Bosentan monohydrate] | 101.97 | 96.12 | 91.91* | 93.05* | 93.87* | 97.20 | 103.69 | 85.05* | little toxicity | 91.59 | 99.82 | 97.16 | 84.90 | 79.36 | 83.25 | 73.65 | 64.97* | most toxic | no effect | slightly lower calcium levels | Inhibition of calcification, normalised results (FIG. 27) [4]: do not inhibit calcification |
